The assay concerns the target JAK1 (recombinant purified GST-tagged catalytic domain) (Homo sapiens (Human), UniProt P23458). Description: biochemical.
Chain of JAK1 (recombinant purified GST-tagged catalytic domain) (P23458 875-1153): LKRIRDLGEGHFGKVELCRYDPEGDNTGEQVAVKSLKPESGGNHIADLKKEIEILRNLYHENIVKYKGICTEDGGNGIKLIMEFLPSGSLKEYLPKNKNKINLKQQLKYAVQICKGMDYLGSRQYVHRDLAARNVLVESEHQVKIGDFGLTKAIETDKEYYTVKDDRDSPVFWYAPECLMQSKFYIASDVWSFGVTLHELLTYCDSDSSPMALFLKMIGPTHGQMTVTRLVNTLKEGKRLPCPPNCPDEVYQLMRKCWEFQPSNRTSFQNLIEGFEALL
Take `CC(C)(C)OC(=O)[C@H]1CCC(n2cc(C(N)=O)c(Nc3ccc(F)cc3)n2)[C@@H](C#N)C1` (mixture of isomers) [Example 7-1, tert-Butyl (1S,3S,4S and 1R,3R,4R)-4-{4-carbamoyl-3-[(4-fluorophenyl)amino]-1H-pyrazol-1-yl}-3-cyanocyclohexanecarboxylate]: the IC50 (commonly the point on the concentration scale where inhibition reaches its midpoint) came out at 17 nM.

For `N#C[C@@H]1CC2(CCC1n1cc(C(N)=O)c(Nc3ccnc(F)c3)n1)CC2` (mixture of isomers) [Example 11-7, 1-((5R,6R and 5S,6S)-5-cyanospiro[2.5]octan-6-yl)-3-((2-fluoropyridin-4-yl)amino)-1H-pyrazole-4-carboxamide], the IC50 came out at 5 nM.

Regarding `N#C[C@H]1C[C@H](O)CCC1n1cc(C(N)=O)c(Nc2ccnc(F)c2)n1` (mixture of isomers) [Example 15, 1-[(1S,2S,4R and 1R,2R,4S)-2-Cyano-4-hydroxycyclohexyl]-3-[(2-fluoropyridin-4-yl)amino]-1H-pyrazole-4-carboxamide], the 50% inhibitory concentration (IC50) came out at 3 nM.

In the case of `N#C[C@H]1CCCC[C@@H]1n1cc(C(N)=O)c(Nc2ccnc(Cl)c2)n1` (racemic) [Example 17-7, 3-[(2-chloropyridin-4-yl)amino]-1-[(1S,2S and 1R,2R)-2-cyanocyclohexyl]-1H-pyrazole-4-carboxamide], the IC50 was 4 nM.

Regarding `N#C[C@H]1CCCCC1n1cc(C(N)=O)c(Nc2ccc(S(=O)(=O)CC(F)(F)F)cc2)n1` (mixture of isomers) [Example 17-12, 1-[(1S,2S and 1R,2R)-2-cyanocyclohexyl]-3-({4-[(2,2,2-trifluoroethyl)sulfonyl]phenyl}amino)-1H-pyrazole-4-carboxamide], the IC50 turned out to be 0.49 nM.

As to `N#C[C@@H]1CCCC[C@@H]1n1cc(C(N)=O)c(Nc2ccc(F)nc2)n1` (racemic) [Example 17-24, 1-[(1S,2R and 1R,2S)-2-cyanocyclohexyl]-3-[(6-fluoropyridin-3-yl)amino]-1H-pyrazole-4-carboxamide], the IC50 was determined as 33 nM.

With `N#C[C@H]1CCCCC1n1cc(C(N)=O)c(Nc2ccc3c(c2)C=CS3(=O)=O)n1` (mixture of isomers) [Example 17-63, 1-[(1S,2S and 1R,2R)-2-cyanocyclohexyl]-3-[(1,1-dioxido-1-benzothiophen-5-yl)amino]-1H-pyrazole-4-carboxamide], the IC50 was 0.45 nM.

Regarding `N#C[C@H]1CCCCC1n1cc(C(N)=O)c(Nc2ccc3c(c2)CCS3(=O)=O)n1` (mixture of isomers) [Example 20, 1-[(1S,2S and 1R,2R)-2-Cyanocyclohexyl]-3-[(1,1-dioxido-2,3-dihydro-1-benzothiophen-5-yl)amino]-1H-pyrazole-4-carboxamide], the IC50 turned out to be 0.4 nM.

`CNC1CCC(n2cc(C(N)=O)c(Nc3ccc(S(=O)(=O)C(F)(F)F)cc3)n2)[C@@H](C#N)C1` (mixture of isomers) [Example 27-6, 1-[(1S,2S and 1R,2R)-2-cyano-4-(methylamino)cyclohexyl]-3-({4-[(trifluoromethyl)sulfonyl]phenyl}amino)-1H-pyrazole-4-carboxamide]: the IC50 came out at 0.08 nM.

On to `CN(C)[C@@H]1CCC(n2cc(C(N)=O)c(Nc3ccc(S(=O)(=O)C(F)(F)F)cc3)n2)[C@@H](C#N)C1` (mixture of isomers) [Example 27-7, 1-[(1S,2S,4R and 1R,2R,4S)-2-cyano-4-(dimethylamino)cyclohexyl]-3-({4-[(trifluoromethyl)sulfonyl]phenyl}amino)-1H-pyrazole-4-carboxamide], for which the IC50 was 0.4 nM.

`CN(C)[C@H]1CCC(n2cc(C(N)=O)c(Nc3ccc(S(=O)(=O)C(F)(F)F)cc3)n2)[C@@H](C#N)C1` (mixture of isomers) [Example 27-8, 1-[(1S,2S,4S and 1R,2R,4R)-2-cyano-4-(dimethylamino)cyclohexyl]-3-({4-[(trifluoromethyl)sulfonyl]phenyl}amino)-1H-pyrazole-4-carboxamide]: the IC50 came out at 0.3 nM.

Regarding `CN[C@H]1CCC(n2cc(C(N)=O)c(Nc3ccc(S(=O)(=O)C(F)(F)F)cc3)n2)[C@@H](C#N)C1` (mixture of isomers) [Example 27-9, 1-[(1S,2S,4S and 1R,2R,4R)-2-cyano-4-(methylamino)cyclohexyl]-3-({4-[(trifluoromethyl)sulfonyl]phenyl}amino)-1H-pyrazole-4-carboxamide], the IC50 was 3 nM.

For `N#C[C@H]1CC(NCCO)CCC1n1cc(C(N)=O)c(Nc2ccc(S(=O)(=O)C(F)(F)F)cc2)n1` (mixture of isomers) [Example 27-15, 1-{(1S,2S and 1R,2R)-2-cyano-4-[(2-hydroxyethyl)amino]cyclohexyl}-3-({4-[(trifluoromethyl)sulfonyl]phenyl)amino)-l/f-pyrazolc-4-carboxamide], the IC50 was 0.35 nM.

As for `CC(C)NC(=O)O[C@@H]1CCC(n2cc(C(N)=O)c(Nc3ccc(F)cc3)n2)[C@@H](C#N)C1` (mixture of isomers) [Example 34-4, (1R,3S,4S and 1S,3R,4R)-4-{4-carbamoyl-3-[(4-fluorophenyl)amino]-1H-pyrazol-1-yl}-3-cyanocyclohexyl propan-2-ylcarbamate], the IC50 came out at 2 nM.

In the case of `CC(C)NC(=O)O[C@H]1CCC(n2cc(C(N)=O)c(Nc3ccc(F)cc3)n2)[C@@H](C#N)C1` (mixture of isomers) [Example 34-8, (1S,3S,4S and 1R,3R,4R)-4-{4-carbamoyl-3-[(4-fluorophenyl)amino]-1H-pyrazol-1-yl}-3-cyanocyclohexyl propan-2-ylcarbamate], the IC50 came to 6 nM.

Turning to `N#C[C@H]1CCCC[C@@H]1n1cc(C(N)=O)c(Nc2ccc(F)nc2)n1` (single isomer, unassigned) [Example 17-19, 1-[(1S,2S or 1R,2R)-2-cyanocyclohexyl]-3-[(6-fluoropyridin-3-yl)amino]-1H-pyrazole-4-carboxamide], the IC50 came out at 3 nM.

For the compound `N#C[C@@H]1CCCC[C@H]1n1cc(C(N)=O)c(Nc2ccc(F)nc2)n1` (single isomer, unassigned) [Example 17-23, 1-[(1R,2R or 1S,2S)-2-cyanocyclohexyl]-3-[(6-fluoropyridin-3-yl)amino]-1H-pyrazole-4-carboxamide], the IC50 worked out at 11 nM.

Regarding `CC(=O)c1ccc(Nc2nn([C@H]3CCCC[C@@H]3C#N)cc2C(N)=O)cc1` (single isomer, unassigned) [Example 17-27, 3-[(4-acetylphenyl)amino]-1-[(1S,2S or 1R,2R)-2-cyanocyclohexyl]-1H-pyrazole-4-carboxamide], the IC50 was found to be 0.3 nM.

On to `C[C@](O)(c1ccc(Nc2nn([C@H]3CCCC[C@@H]3C#N)cc2C(N)=O)cn1)C(F)(F)F` (single isomer, unassigned) [Example 17-34, 1-[(1S,2S or 1R,2R)-2-cyanocyclohexyl]-3-({6-[(1S or 1R)-2,2,2-trifluoro-1-hydroxy-1-methylethyl]pyridin-3-yl}amino)-1H-pyrazole-4-carboxamide], for which the IC50 was 2 nM.

Regarding `C[C@@](O)(c1ccc(Nc2nn([C@H]3CCCC[C@@H]3C#N)cc2C(N)=O)cn1)C(F)(F)F` (single isomer, unassigned) [Example 17-35, 1-[(1S,2S or 1R,2R)-2-cyanocyclohexyl]-3-({6-[(1R or 1S)-2,2,2-trifluoro-1-hydroxy-1-methylethyl]pyridin-3-yl}amino)-1H)-pyrazole-4-carboxamide], the IC50 was determined as 3 nM.

Consider `C[C@](O)(c1ccc(Nc2nn([C@H]3CCCC[C@@H]3C#N)cc2C(N)=O)cn1)C(F)F` (single isomer, unassigned) [Example 17-39, 1-[(1S,2S or 1R,2R)-2-cyanocyclohexyl]-3-({6-[(1S or 1R)-2,2-difluoro-1-hydroxy-1-methylethyl]pyridin-3-yl}amino)-1H-pyrazole-4-carboxamide], for which the IC50 is 1 nM.

With `N#C[C@H]1CCCC[C@@H]1n1cc(C(N)=O)c(Nc2ccc([C@@H](O)C(F)(F)F)nc2)n1` (single isomer, unassigned) [Example 17-46, 1-[(1S,2S or 1R,2R)-2-cyanocyclohexyl]-3-({6-[(1R or 1S)-2,2,2-trifluoro-1-hydroxyethyl]pyridin-3-yl}amino)-1H-pyrazole-4-carboxamide], the IC50 was found to be 0.35 nM.

Consider `N#C[C@H]1CCCC[C@@H]1n1cc(C(N)=O)c(Nc2ccc([C@H](O)C(F)(F)F)nc2)n1` (single isomer, unassigned) [Example 17-50, 1-[(1S,2S or 1R,2R)-2-cyanocyclohexyl]-3-({6-[(1S or 1R)-2,2,2-trifluoro-1-hydroxyethyl]pyridin-3-yl}amino)-1H-pyrazole-4-carboxamide], for which the IC50 came to 0.2 nM.

In the case of `N#C[C@H]1CCCC[C@@H]1n1cc(C(N)=O)c(Nc2cc(F)cc(Cl)c2)n1` (single isomer, unassigned) [Example 17-51, 3-[(3-chloro-5-fluorophenyl)amino]-1-[(1S,2S or 1R,2R)-2-cyanocyclohexyl]-1H-pyrazole-4-carboxamide], the IC50 is 7 nM.

For the compound `CC(C)(C(=O)NCC(F)(F)F)c1ccc(Nc2nn([C@H]3CCCC[C@@H]3C#N)cc2C(N)=O)cc1` (single isomer, unassigned) [Example 17-57, 1-[(1S,2S or 1R,2R)-2-cyanocyclohexyl]-3-[(4-{1,1-dimethyl-2-oxo-2-[(2,2,2-trifluoroethyl)amino]ethyl}phenyl)amino]-1H-pyrazole-4-carboxamide], the IC50 was found to be 0.2 nM.

As for `COC(=O)c1ccc(Nc2nn([C@H]3CCCC[C@@H]3C#N)cc2C(N)=O)cn1` (single isomer, unassigned) [Example 17-70, methyl 5-({4-carbamoyl-1-[(1R,2R or 1S,2S)-2-cyanocyclohexyl]-1H-pyrazol-3-yl}amino)pyridine-2-carboxylate], the half-inhibitory concentration (IC50) came out at 3 nM.

Take `CC(C)(C)NC(=O)c1cncc(Nc2nn([C@H]3CCCC[C@@H]3C#N)cc2C(N)=O)c1` (single isomer, unassigned) [Example 17-71, N-tert-butyl-5-({4-carbamoyl-1-[(1R,2R or 1S,2S)-2-cyanocyclohexyl]-1H-pyrazol-3-yl}amino)pyridine-3-carboxamide]: the half-inhibitory concentration (IC50) was 60 nM.

On to `CC(C)NS(=O)(=O)c1ccc(Nc2nn([C@H]3CCCC[C@@H]3C#N)cc2C(N)=O)cc1` (single isomer, unassigned) [Example 17-93, 1-[(1R,2R or 1S,2S)-2-cyanocyclohexyl]-3-({4-[(1-methylethyl)sulfamoyl]phenyl}amino)-1H-pyrazole-4-carboxamide], for which the IC50 amounted to 0.3 nM.

The values are drawn from patent publication US8962608B2, “Cycloalkylnitrile pyrazole carboxamides as janus kinase inhibitors” (Merck Sharp & Dohme Corp., priority 2011, dated 2015).
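Note: biochemical assay with HTRF read-out.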
